Data from patent US9320753B2, “Organ arrest, protection and preservation” (priority 1999, dated 2016).

Tests used:
[1] = cited from earlier work
[2] = tested on: isolated working rat heart; experiment: Lignocaine alone in the isolated working rat heart; details: lignocaine alone at 0.5, 1.0 and 1.5 mM
Description: Lignocaine is a local anaesthetic which blocks sodium fast channels and has antiarrhythmatic properties by reducing the magnitude of inward sodium current. The accompanying shortening of the action potential is thought to directly reduce calcium entry into the cell via Ca^2+ selective channels and Na^+/Ca^2+ exchange. Recent reports also implicate lignocaine with the scavenging of free radicals such as hydroxyl and singlet oxygen in the heart during reperfusion.

heart = experiment: Arrest with pinacidil plus local anaesthetics (Example 7); details: arrest solutions with local anaesthetics
Method: Arrest solutions were made with pinacidil dissolved in 0.05% dimethysulfoxide (DMSO) (200 μM) the local anaesthetics prilocalne, procaine, mepivacaine and lignocaine in Krebs-Henseleit solution.

[3] = requires a carrier (DMSO); cited from earlier work

In the case of `Nc1ncnc2c1ncn2[C@@H]1O[C@H](CO)[C@@H](O)[C@H]1O` [adenosine], the “half life in the blood” value [1] is listed as “about 10 seconds”.
With `CCN(CC)CC(=O)Nc1c(C)cccc1C` [lignocaine] the “functional recoveries” value [2] was “highly variable functional recoveries”.
For `CC(N/C(=N\C#N)Nc1ccncc1)C(C)(C)C` (stereo not shown) [pinacidil], the “effectiveness compared with adenosine” value (heart) is listed as “not as effective as adenosine” and the “solubility in aqueous solutions” value [3] is listed as “low solubility in aqueous solutions”.
